Assay results published in US11154519B2, “Inhibitors and their uses” (MEDICAL RESEARCH COUNCIL, priority 2015, dated 2021).

Assays:
PPP1R15B-PP1 = target: T1, PPP1R15B-PP1 (Homo sapiens, UniProt Q5SWA1); assay: SPR steady-state binding to R15B-PP1 holophosphatase; conditions: SPR steady-state, MBP-R15B340-698-His captured on bio-PP1c, 10° C.; read-out: R15B (KD)
T1 construct: cDNAs encoding amino acids 325-636 of PPP1R15A and 340-698 of PPP1R15B were His-tagged and cloned into pMAL-c5x; made in house; host or cells: R15B: E. coli BL21-Gold (pMAL-c5x); PP1γ: Sf9 insect cells (baculovirus, pDW464)
T1 sequence (Q5SWA1 340-698): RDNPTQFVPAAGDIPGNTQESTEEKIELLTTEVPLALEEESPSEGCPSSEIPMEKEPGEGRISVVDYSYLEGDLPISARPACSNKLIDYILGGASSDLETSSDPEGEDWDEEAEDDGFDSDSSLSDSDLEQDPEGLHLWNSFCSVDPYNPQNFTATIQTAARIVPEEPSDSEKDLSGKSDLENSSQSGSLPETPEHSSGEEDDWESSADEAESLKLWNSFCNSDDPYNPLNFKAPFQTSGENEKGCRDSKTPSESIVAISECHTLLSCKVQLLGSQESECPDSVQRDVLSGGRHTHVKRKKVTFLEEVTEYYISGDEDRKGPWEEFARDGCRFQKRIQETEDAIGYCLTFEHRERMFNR
T1 sequence (P36873 whole entry partner, the tested form may be a part): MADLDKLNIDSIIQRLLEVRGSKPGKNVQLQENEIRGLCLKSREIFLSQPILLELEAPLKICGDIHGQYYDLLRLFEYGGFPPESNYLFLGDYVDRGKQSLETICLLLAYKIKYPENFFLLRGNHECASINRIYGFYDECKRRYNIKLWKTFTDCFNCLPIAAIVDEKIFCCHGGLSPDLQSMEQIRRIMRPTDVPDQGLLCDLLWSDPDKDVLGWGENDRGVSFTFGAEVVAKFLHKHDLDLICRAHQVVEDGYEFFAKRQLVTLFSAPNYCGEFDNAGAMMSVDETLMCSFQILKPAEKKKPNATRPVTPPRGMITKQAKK
Method: (§1) PPP1R15A^325-636 and PPP1R15B^340-698 were expressed and purified as follows: the cDNAs encoding amino acids 325-636 of PPP1R15A and 340-698 of PPP1R15B were His-tagged and cloned into pMAL-c5x. Recombinant PPP1R15A/B were expressed in BL21-Gold cells and purified by affinity chromatography on a HisTrap HP column (GE Healthcare), followed by a MBPTrap HP column (GE Healthcare). The proteins were analyzed on BOLT SDS-PAGE 4-12% Bis-Tris gels (Life Technologies) stained with SimplyBlue SafeStain (Life Technologies). cDNA encoding for human PP1γ was cloned into the baculovirus transfer vector pDW464 to add a biotin acceptor peptide (BAP). The vector also encodes for the E. coli biotin holoenzyme synthetase (BirA), so that BAP-tagged proteins can be biotinylated in vivo in Spodoptere frugiperda (Sf9) insect cells (Duffy et al., Anal. Biochem., 262, 122-128, 1998). The Bac-to-Bac baculovirus expression system (Life Technologies) was used to generate the recombinant bacmid DNA and Sf9 insect cells were used to amplify the viral stocks Cultures were harvested by centrifuging at 1,200 g for 15 minutes, cell pellets were resuspended in lysis buffer (50 mM Tris pH 7.4, 150 mM NaCl, 0.2% Triton, 5% Glycerol, 1 PiC tablet (Roche) per 50 ml and 0.2 mM PMSF) and followed by gentle sonication. The protein was first purified on a 5 ml HiTrap Q HP column (GE Healthcare) followed by a HiLoad 16/600 Superdex 200 column (GE Healthcare). The positive fractions confirmed by SDS-PAGE and western blot were pooled, concentrate to ˜1 μM and stored at −80° C.
(§2) A Biacore T200 (GE Healthcare) system was used for all experiments and biotinylated PP1 was captured using a Sensor Chip SA (GE Healthcare, catalog no BR-1005-31). The streptavidin coated surface was activated by 1 min injection with a solution of 50 mM NaOH and 1 M NaCl. Biotin-PP1 was diluted in the running buffer (50 mM Tris pH 7.5, 100 mM NaCl, 0.1 mM EGTA, 1 mM MnCl2, 0.05% Tween 20) and injected at approximately 300 nM concentration directly to streptavidin coated surface for 100 sec or to reach immobilization level of biotin-PP1 corresponding to ˜7000 RU. A blank immobilization was performed for one of the SA sensor chip surface to use as a reference.
(§3) With minor deviations, the same procedure and conditions were used in all binding experiments. Small molecules were stored as 50 mM stock solutions in 100% DMSO. Prior to determining binding constants, serial dilutions of either 12 or 8 concentrations of the compounds were prepared in the running buffer in a 96-well plate. Prior to each compound dilution series the regulatory subunit, R15A or R15B, was diluted to […] in the running buffer and captured on the biotin-PP1 surface, to form the holophosphatase complex on the sensor chip surface. Then, without regenerating the surface, the compound dilution series was injected onto the surface of the chip Sensorgrams were analyzed using the Biacore T200 evaluation software and the binding constants determined based on a steady-state model. Kinetic experiments are carried out using different concentrations of the compound and their respective equilibrium binding levels determined.
(§4) Surface Plasmon Resonance (SPR) was used to measure the binding affinity of compounds to the PPP1R15A/B-PP1 phosphatase complex. Biotin acceptor peptide (BAP) was fused to the N-terminus of PP1γ, which enables the biotinylation of the BAP-tagged protein in Sf9 insect cells. After purification the BAP-PP1γ protein was captured on a streptavidin sensor chip (SA-chip, GE healthcare) to a response level of ˜5.000 RU. Using controlled biotinylation enables orientated and uniform immobilization on the sensor chip surface. The PP1γ was then used to capture PPP1R15A/B and form a holophosphatase complex on the surface of the streptavidin chip. This complex can then be used to test binding of compounds. 10 μM PPP1R15A/B protein concentration was used to form the holophosphatase complex during a 80 s injection. […]

PPP1R15A-PP1 complex = target: T2, PPP1R15A-PP1 complex (Homo sapiens, UniProt O75807); assay: SPR steady-state binding to R15A-PP1 holophosphatase; conditions: SPR steady-state, MBP-R15A325-636-His captured on bio-PP1c, 10° C.; read-out: R15A (KD)
T2 construct: cDNAs encoding amino acids 325-636 of PPP1R15A and 340-698 of PPP1R15B were His-tagged and cloned into pMAL-c5x; made in house; host or cells: R15A: E. coli BL21-Gold (pMAL-c5x); PP1γ: Sf9 insect cells (baculovirus, pDW464)
T2 sequence (O75807 325-636): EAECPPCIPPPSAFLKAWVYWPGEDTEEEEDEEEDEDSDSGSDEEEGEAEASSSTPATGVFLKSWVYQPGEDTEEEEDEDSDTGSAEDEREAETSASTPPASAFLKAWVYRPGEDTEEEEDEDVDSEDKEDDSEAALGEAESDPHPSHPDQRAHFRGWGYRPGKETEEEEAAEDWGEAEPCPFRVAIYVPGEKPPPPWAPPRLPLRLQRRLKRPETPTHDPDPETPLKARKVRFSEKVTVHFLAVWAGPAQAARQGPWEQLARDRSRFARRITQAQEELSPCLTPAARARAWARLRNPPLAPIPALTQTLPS
T2 sequence (P36873 whole entry partner, the tested form may be a part): as the sequence (P36873 whole entry partner, the tested form may be a part) above
Method: as §1, §2, §3, §4

HeLa cells [1] = assay: Cytoprotection against ER stress (tunicamycin), IncuCyte; type: cell-based; conditions: Homo sapiens, 250 ng/ml Tunicamycin, 72 hours, compound 0-20 μM, read-out: Cytoprotection from Tm (compared to GNB)
Method: (§5) HeLa cells (40,000 cells/ml) were plated in a 96-well plate and treated with different concentrations (0-20 μM) of a compound as indicated in the presence of 250 ng/ml Tunicamycin for 72 hours. To monitor cell death 1/2000 dilution of the CellTox green dye (Promega) was added to the media. The growth of the cells was monitored over time and pictures taken every 2 hours with the IncuCyte ZOOM system and analysed by the IncuCyte ZOOM software (Essen BioScience). […] Cytoprotection against ER stress can be measured by a suitable assay. In this instance, cytoprotection was measured in HeLa cells in which ER stress was elicited by the addition of media containing tunicamycin, a drug that blocks N-glycosylation, thereby preventing protein folding and inducing the unfolded protein response. Cell viability was then detected in the presence and absence of a compound listed in Table 1 after a set period of time, by monitoring cell growth over time. Cytoprotection from ER stress was measured in terms of the percentage increase in viable cells (relative to control) after ER stress.

R15A or R15B = assay: Selective binding towards R15A or R15B (based on SPR); design: species or system human
Method: In one embodiment, the compounds of formula IB inhibit PPP1R15A and PPP1R15B. Inhibition of PPP1R15A and PPP1R15B can be determined from binding analysis. For example, binding can be analysed using SPR (surface plasmon resonance) to obtain KD values. A PPP1R15A and PPP1R15B inhibitor may be defined as a compound where the difference in KD values between R15A and R15B is no more than about 3 fold.
Small molecules were stored as 50 mM stock solutions in 100% DMSO. Prior to determining binding constants, serial dilutions of either 12 or 8 concentrations of the compounds were prepared in the running buffer in a 96-well plate. Prior to each compound dilution series the regulatory subunit, MBP-R15A^325-636-His or MBP-R15B^340-698-His, was diluted to 10 μM in the running buffer and captured on the bio-PP1c surface at a flow rate of 30 μl/min for 1 minute to form the holophosphatase complex on the sensor chip surface. This was followed by 1 minute stabilization period, to wash off any unspecific binding. Then, without regenerating the surface, the compound dilution series was injected onto the surface of the chip at a flow rate of 30 μl/min for 1 minute, followed by 2 minutes dissociation time. After each dilution series the surface was regenerated using 3 M NaCl for 90 seconds. After regeneration, SPR responses generally returned to base levels and the bio-PP1c surface was ready for the next compound dilution series. In order to be able to correct for small variations in DMSO concentration between samples, eight solvent samples ranging from 0.06 to 8% DMSO were injected every 50th cycle. The flow cell temperature was 10° C.
Sensorgrams were analyzed using the Biacore T200 evaluation software and the binding constants determined based on a steady-state model. Kinetic experiments are carried out using different concentrations of the compound and their respective equilibrium binding levels determined.

HeLa cells [2] = assay: Cell death dose response (CellTox green, IncuCyte); type: cell-based; conditions: for Effect on cell death: IncuCyte, 0-20 μM
Method: Toxicity of the compounds is assessed using Cell viability Counting Kit-8 (Dojindo) or in a Incucyte (Essenbioscience) using both phase contrast and IncuCyte™ Cytotox Green Reagent.
as §5
EC50 were extrapolated from dose response experiments on cell death. Data from IncuCyte was plotted and analysed in Prism. The “% of cell death” for each data point. For each concentration there is a % of cell death vs time, the area under the curve was taken and plotted against log conc=>EC50 (analysis in Prism).

PP1 = target: T3, PP1 (Homo sapiens, UniProt P36873); assay: SPR binding to PP1 alone; conditions: SPR steady-state, bio-PP1c surface
T3 construct: made in house; host or cells: Sf9 insect cells (baculovirus, pDW464)
T3 sequence (P36873 whole entry): as the sequence (P36873 whole entry partner, the tested form may be a part) above

protein synthesis [3] = assay: Assessment of translation rates (35S-methionine labelling); type: cell-based
Method: Cells (90,000 cells/ml) were plated in 12-well plates, treated as indicated, labelled with 100 μCi/mI 35S-methionine (Hartmann Analytic) for 10 minutes at 37° C., washed with ice-cold PBS and lysed in 120 μl Laemmli Buffer. Lysates were boiled at 95° C. for 5 minutes, sonicated and resolved on 4-12% Bolt Bis-Tris Plus Gels (Thermo Fisher Scientific). Gels were then stained with InstantBlue (Expedeon) and analyzed by phosphorimaging and quantified using ImageJ.
By monitoring translation rates as described above, the activities of R15A, R15B and R15A/B inhibitors can be defined as follows (also shown in FIG. 12). An R15A inhibitor has no effect on translation in unstressed cells but prolongs translation attenuation following stress. A selective R15B inhibitor transiently attenuate protein synthesis because R15A compensates for the inhibition of R15B.

protein synthesis [4] = conditions: unstressed cells; Tsaytler et al., Science 2011; cited from earlier work
mice = assay: Side effects of Guanabenz: activity of mice after dosing; type: in vivo; conditions: 10 mg/kg oral gavage
Method: To assess whether of a compound of Example 1 had the side effects of Guanabenz, mice (n>3) were gavaged orally with 10 mg/kg of compound or Guanabenz. Their activity was monitored 30 minutes following dosing.
In humans, the adrenergic agonist activity of Guanabenz has side effects including drowsiness and coma at high doses (A. H. Hall, Ann Intern Med 102; 787-788; 1985). Due to of these side effects, Guanabenz is no longer used in human. It is anticipated that Guanabenz derivatives have the side effects of Guanabenz, associated with alpha-2 adrenergic activity.

[H]/N=C(\N)NN=Cc1cnc(Cl)nc1Cl [Compound 2, (E)-2-((2,4-dichloropyrimidin-5-yl)methylene)hydrazine-1-carboximidamide]
Kd (PPP1R15B-PP1): 9.22 µM
Kd (PPP1R15A-PP1 complex): 46.4 ± 18.3 µM
Emax (HeLa cells [1]): 0%
Selective binding towards R15A or R15B (based on SPR) (R15A or R15B): R15B (A “selective inhibitor” may be defined as a compound where the difference in KD values between R15A and R15B is greater than 3 fold)
EC50 (HeLa cells [2]; Homo sapiens, area under % cell death vs time curve against log conc, read-out: Effect on cell death ⇒ EC50): 7.71 µM
Effect on cell death (HeLa cells [2]): Yes

N=C(N)N/N=C/c1cc(Cl)c(Cl)cc1Cl [Compound 4, (E)-2-(2,4,5-trichlorobenzylidene)hydrazine-1-carboximidamide]
Kd (PPP1R15B-PP1): 0.022 ± 0.02 µM
Kd (PP1): 332 µM
Kd (PPP1R15A-PP1 complex): 0.457 ± 0.13 µM
Emax (HeLa cells [1]): 80%
Selective binding towards R15A or R15B (based on SPR) (R15A or R15B): R15AB (A PPP1R15A and PPP1R15B inhibitor may be defined as a compound where the difference in KD values between R15A and R15B is no more than about 3 fold)
Effect on cell death (HeLa cells [2]): No

[H]/N=C(\N)NN=Cc1cccc(F)c1Cl [Compound 25, (E)-2-(2-chloro-3-fluorobenzylidene)hydrazine-1-carboximidamide]
Kd (PPP1R15B-PP1): 9.22 ± 0.19 µM
Kd (PP1): 3.65 µM
Kd (PPP1R15A-PP1 complex): 6.18 ± 3.31 µM
Emax (HeLa cells [1]): 54%
Selective binding towards R15A or R15B (based on SPR) (R15A or R15B): R15AB (A PPP1R15A and PPP1R15B inhibitor may be defined as a compound where the difference in KD values between R15A and R15B is no more than about 3 fold)
Effect on cell death (HeLa cells [2]): No

[H]/N=C(\N)NN=Cc1ccc(F)c(F)c1Cl [Compound 27, (E)-2-(2-chloro-3,4-difluorobenzylidene)hydrazine-1-carboximidamide]
Effect on translation ⇒ Inhibits (protein synthesis [3]; target(s) concluded to be inhibited): R15AB
Kd (PPP1R15A-PP1 complex): 10.6 µM
Emax (HeLa cells [1]): 57%
Effect on cell death (HeLa cells [2]): No

[H]/N=C(\N)NN=Cc1cc(F)c(F)cc1Cl [Compound 32, (E)-2-(2-chloro-4,5-difluorobenzylidene)hydrazine-1-carboximidamide]
Effect on translation (protein synthesis [3]; 35S-methionine labelling of cells): Persistent
Kd (PPP1R15B-PP1): 17.3 µM
Kd (PPP1R15A-PP1 complex): 4.82 ± 0.26 µM
Emax (HeLa cells [1]): 100%
Effect on cell death (HeLa cells [2]): No

N=C(N)N/N=C/c1c(Cl)cccc1Cl [Guanabenz, reference compound]
protein synthesis rates (protein synthesis [3]; unstressed cells, 10 μM, FIG. 12): doesn't inhibit protein synthesis in unstressed cell
protein synthesis (protein synthesis [4]): doesn't inhibit protein synthesis in untressed cells
activity of mice 30 minutes following dosing (mice): did not move 30 minutes after dosing
